Data on six substances can be found in patent US20220177877A1, “HIGHLY MULTIPLEXED BASE EDITING” (President and Fellows of Harvard College, priority 2019, published 2022).

The test system of data set [1] is LINE-1. As to the kind of experiment: Line-1 subfamily analysis and matches to HL1gR4 (HL1gR4 PCR products). Further details: species or system human. The note with it: for Reads: Total Reads 35520.
The subject of data set [2] is LINE-1. As to the kind of experiment: FACS single cell direct NGS of targeted deamination, HEK 293T. The note with it: for Mean target deamination % / Percent of cells with targeted deamination / Number of cells with targeted deamination: HEK 293T; for Mean target deamination % / Percent of cells with targeted deamination: Day 2; for Number of cells with targeted deamination: Day 2, 96 analyzed cells. The class given is cell-based, human. As to the method:
To quantify early genetic editing in cells transfected with Cas9/BE and gRNA expression plasmids, single cells were sorted and prepared as follows. Two days post-transfection, single cells were FACS-sorted into 96-well PCR plates containing 10 μL of QUICKEXTRACT™ DNA Extraction Solution (Epicentre Cat. #QE09050) per well and genomic DNA (gDNA) was extracted using the manufacturer's protocol. Briefly, the sorted plates were sealed, vortexed and heated at 65° C. for 6 minutes then 98° C. for 2 minutes. The NGS library was prepared as described later below.
(§1) Library preparation was conducted as previously described^5.

Data set [3] concerns LINE-1.
Experimental: (§2) Single cells were FACS-sorted into flat bottom 96-well plates containing 100 μL of DMEM with 10% FBS and 1% Penicillin/Streptomycin per well. Sorted plates were incubated for ˜14 days until well-characterized colonies were visible, with periodic media changes performed as necessary. To extract gDNA, the cells were first detached using 30 μL TRYPLE™ Express (Thermofisher Cat. #12604021) and neutralized with 30 μL growth media. Then, 4 μL of the resulting cell suspension was transferred to 10 μL of QE. Genomic DNA was extracted according to manufacturer's protocol, as described previously.
(§3) Library preparation was conducted as previously described^5. Briefly, genomic DNA was amplified using locus-specific primers attached to part of the Illumina adapter sequence. A second round of PCR included the index sequence and the full Illumina adapter. All PCRs were carried out using KAPA HiFi HotStart ReadyMix (KAPA Biosystems KK2602) according to the manufacturer's thermocycler conditions. Libraries were purified using gel extraction (Qiagen Cat. #28706), quantified using Nanodrop and pooled together for deep sequencing on the MiSeq using 150 paired end (PE) reads.
(§4) All paired end reads were aligned to the reference genome using bowtie2, and the resulting alignment files were converted to bam, sorted, indexed, and variant called using samtools^7. All SNV data within a 30 bp window from the 5′ start of the gRNA proceeding through the PAM and extending an additional seven bp's (for a 20 bp gRNA) are reported to analyze the editing window and purity of editing.
Data set [4] relates to LINE-1. Description: Single cell clonal isolation and sequence verification of live edited HEK 293T clones. The note with it: for Mean target deamination % / Number of cells with targeted deamination / Percent of cells with targeted deamination: HEK 293T, Day 14; for non-specific nucleotide conversions in gRNA and PAM: most highly edited clone versus parental 293T control.
Experimental: as §2, §3, §4
Data set [5] relates to LINE-1. Description: NGS base editing deamination analysis, bulk transfected HEK 293T. The note with it: for gRNAs with above control levels of base editing in genomic DNA: HEK 293T, LINE-1 gRNAs. The class given is cell-based, human. As to the method:
as §1

Where [6] appears, read: HL1gR6, 3 days after transfection.
The mark [7] stands for this setting: 293T, HL1gR4, two days post-transfection.

Experimental for single-locus targets: HEK 293T cells were obtained from ATCC with verification of cell line identification and mycoplasma negative results. They were expanded using 10% fetal bovine serum (FBS) in high-glucose DMEM with glutamax passaging at a typical rate of 1:100 and maintained at 37° C. with 5% CO2. Transfection was conducted using Lipofectamine 2000 (ThermoFisher Catalogue #11668019) using the protocol recommended by the manufacturer with slight modifications outlined below. 24 hours before transfection ˜1.0×10^5 cells were seeded per well in a 12-well plate along with 1 mL of media. A total of 2 μg of DNA and 2 μL of Lipofectamine 2000 were used per well. For Cas9 plasmids, the DNA content per well was 1 μg of pCas9_GFP mixed with 1 μg of gRNA-expressing plasmid. For BE plasmids, 1.5 μg of BE was mixed with 0.5 μg of gRNA plasmid. In the dBE vs nBE comparison used to generate FIGS. 4A-4C, Pifithrin-α (10 ng/μ1) from Sigma-Aldrich P4359 (source #063M4741V, Batch #0000003019) was added to the media 30 minutes before transfection and maintained in the first day media change.
Raw Illumina sequencing data was demultiplexed using bcl2fastq. All paired end reads were aligned to the reference genome using bowtie2^49 and the resulting alignment files were parsed for their cigar string to determine the position and size of all indels within each read using a custom perl script (https://github.com/CRISPRengineer/mutation_indel). All indels that were sequenced in both the forward and reverse reads were summed across all reads and reported for each sample along with the total number of reads. Indels within a 30 bp window from the 5′ start of the gRNA proceeding through the PAM and extending an additional seven bp's (for a 20 bp gRNA) were counted and summed for each sample.
as §4

Turning to “HL1gR4: SpCas9 gRNA targeting LINE-1 ORF2, SEQ ID NO: 54 (guide ATTCTACCAGAGGTACAAGG; chemistry not given here)”, the Percentage of reads was 64.1% in the data set with LINE-1 [1] (# of Mismatches 0); 18.4% with LINE-1 [1] (# of Mismatches 1); 3.2% in the data set with LINE-1 [1] (# of Mismatches 2); 0.4% in the data set with LINE-1 [1] (# of Mismatches 3); 0.2% in the data set on LINE-1 [1] (# of Mismatches 4); 0.0% in the data set with LINE-1 [1] (# of Mismatches 5). The Percentage of reads in the data set on LINE-1 [1] (# of Mismatches 6) amounted to 0.1%; in the data set with LINE-1 [1] (# of Mismatches 7) it was 0.0%; with LINE-1 [1] (# of Mismatches 8), 0.0%; in the data set with LINE-1 [1] (# of Mismatches 9), 0.0%; in the data set on LINE-1 [1] (# of Mismatches >9) it was 13%. Further, the Reads in the data set on LINE-1 [1] (# of Mismatches 0) was 22780; in the data set on LINE-1 [1] (# of Mismatches 1), 6546; in the data set with LINE-1 [1] (# of Mismatches 2), 1131; in the data set on LINE-1 [1] (# of Mismatches 3) it was 148; in the data set on LINE-1 [1] (# of Mismatches 4), 63; in the data set on LINE-1 [1] (# of Mismatches 5), 2. In addition, the Reads with LINE-1 [1] (# of Mismatches 6) amounted to 26; in the data set on LINE-1 [1] (# of Mismatches 7), 1; in the data set with LINE-1 [1] (# of Mismatches 8) it was 1; with LINE-1 [1] (# of Mismatches 9), 1; with LINE-1 [1] (# of Mismatches >9) it was 4600.

For the substance “dCBE4-gam: nick-less dCas9 cytidine base editor with mu-gam (H840A), SEQ ID NO: 108”, the “mean target nucleotide deamination frequency compared to nBE equivalents” value in the data set on LINE-1 [2] (293T, HL1gR4, 2 days after transfection) is “significant reductions”. In the data set with LINE-1 [2], the “Mean target deamination %” value was found to be 4.43%, the “Percent of cells with targeted deamination” value (shortened to “Percent of cells”) was found to be 41.7% and the “Number of cells with targeted deamination” value (“Number of cells” for short) is on record as 40. In addition, in the data set with LINE-1 [3], the “Number of analyzed cells” value was 29. Further, the indel activity entry with single-locus targets is listed as “reduced to background levels”. Also, the “total number of chromosomal aberrations of top edited clones” value (shortened to “total number”) in the data set on HEK 293T was “not significantly different than control groups”. In the data set on LINE-1 [4], the “Mean target deamination %” value worked out at 3.05%; the “Number of cells” value is 20; the “Percent of cells” value came to 69%; the “non-specific nucleotide conversions in gRNA and PAM” value (from here on “non-specific nucleotide conversions”) is reported as “some non-specific nucleotide conversions”. In the data set on LINE-1 [4] (day 14), the “increase in mean editing frequency among surviving live clones compared to nicking counterpart” value amounted to 2.38 fold.

Turning to “dCBE4: nick-less dCas9 cytidine base editor (H840A), SEQ ID NO: 107”, the indel activity result in the data set on single-locus targets is “reduced to background levels”. In addition, in the data set with single-locus targets (293T cells, day five), the “improvement in editing efficiency over CBE2” value was determined as 2.38 fold and the “reduction in efficiency compared to nicking counterparts” value is recorded as 34.7%.

In the case of “nABE: ecTadA(wt)-linker(32aa)-ecTadA*(7.10)-linker(32aa)-nCas9-NLS, SEQ ID NO: 15, Addgene #102919”, the “gRNAs with above control levels of base editing in genomic DNA” value in the data set with LINE-1 [5] was 4 out of 5. In the data set on LINE-1 [5] (setting [6]), the editing efficiency is given as 4.94% and the loci edited is on record as around 1290 loci. Besides, in the data set with LINE-1 [2], the “Mean target deamination %” value is recorded as 5.32%, the “Percent of cells” value turned out to be 60.4% and the “Number of cells” value was 58. Besides, the “decrease in editing efficiency at the early timepoint” value in the data set on LINE-1 [2] (nABE 5.32% versus dABE 1.45%) is on record as 3.67 fold. Also, the “Number of analyzed cells” value in the data set on LINE-1 [3] was 16. For the same substance, in the data set on HEK 293T, the “total number” value is given as “not significantly different than control groups”. Also, in the data set with LINE-1 [4], the “Mean target deamination %” value came to 0.88%; the “Number of cells” value is 4; the “Percent of cells” value was 25%; the “non-specific nucleotide conversions” value was “not”.

With “nCBE3: rAPOBEC1-XTEN-nCas9-UGI-NLS, SEQ ID NO: 10, Addgene #73021 [reference compound]”, the “mean deamination frequency compared with nCBE4-gam” value with LINE-1 [2] (setting [7]) is “significantly higher”. Moreover, the “fate of edited cell lines before day 30” value in the data set on LINE-1 [4] (293T, HL1gR4) is given as “died”.

On to “nCBE4-gam: Cas9 nickase-cytidine deaminase-gam, SEQ ID NO: 12, Addgene #100806 [reference compound]”, for which the “gRNAs with above control levels of base editing in genomic DNA” value with LINE-1 [5] was 4 out of 5. In the data set with LINE-1 [2] (setting [7]), the “deamination in the most highly edited single cell” value is recorded as “up to 54.9%” and the “estimated loci edited in the most highly edited single cell” value was 14,300 loci. Further, in the data set with LINE-1 [2], the “Mean target deamination %” value was 6.08%, the “Percent of cells” value stood at 65.6% and the “Number of cells” value is on record as 63. In the data set on LINE-1 [2] (day 2), the “C→T deamination in cells after a second round of editing of cloneK” value was “up to 36.26%”. For the same substance, the “Number of analyzed cells” value with LINE-1 [3] came to 12. Moreover, the “total number” value in the data set on HEK 293T is recorded as “not significantly different than control groups”. Further, in the data set with LINE-1 [4] (293T, HL1gR4, day 30), the “deamination frequencies of surviving cell lines” value is given as ≤ 1.37 % of LINE-1 and the “estimated sites edited in surviving cell lines” value is recorded as around 356 sites. Further, in the data set with LINE-1 [4], the “Mean target deamination %” value came to 1.28%; the “Number of cells” value was determined as 4; the “Percent of cells” value was 33%; the “non-specific nucleotide conversions” value was “some non-specific nucleotide conversions”.
